Structures are written as SMILES.

Holding throughout (assay): KinomeScan profiling
Common to all, as to format: binding

The target of one test is T1, CAMK4 (Homo sapiens, UniProt Q16566).
T1 sequence (Q16566 1-473): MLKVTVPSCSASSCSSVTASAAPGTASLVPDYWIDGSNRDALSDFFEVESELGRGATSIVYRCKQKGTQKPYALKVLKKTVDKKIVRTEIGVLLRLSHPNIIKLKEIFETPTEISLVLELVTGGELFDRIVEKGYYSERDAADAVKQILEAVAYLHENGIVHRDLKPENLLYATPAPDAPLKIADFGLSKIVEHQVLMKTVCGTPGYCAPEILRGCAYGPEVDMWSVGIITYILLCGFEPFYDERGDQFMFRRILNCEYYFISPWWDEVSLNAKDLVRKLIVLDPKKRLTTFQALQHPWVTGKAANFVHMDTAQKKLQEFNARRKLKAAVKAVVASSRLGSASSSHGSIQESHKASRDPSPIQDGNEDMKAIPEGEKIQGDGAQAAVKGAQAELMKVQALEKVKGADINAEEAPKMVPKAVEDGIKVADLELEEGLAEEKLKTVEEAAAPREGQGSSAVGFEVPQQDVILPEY
The settings on record: CAMK4, 1 μM; read-out: % control. In short, it runs like this:
(§1)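 Single-point competition binding screen: 1 μM, DMSO, 468 kinases. Results reported as % control from RLU, normalised to DMSO and positive-control wells. Activity threshold: <35% control.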

Test [1] has as its target T2, JAK2(JH1domain-catalytic) (Homo sapiens, UniProt O60674).
T2 construct: Janus kinase 2 (JAK2)(JH1domain-catalytic); purchased KinomeScan®
The settings on record: read-out: % control. In short, it runs like this: as §1

The target in the next test is LYN (Homo sapiens, UniProt P07948). The settings on record: read-out: % control. The procedure, abridged:
as §1

In the next test the target is T3, SGK2 (Homo sapiens, UniProt Q9HBY8).
T3 construct: purchased KinomeScan® (panel service)
T3 sequence (Q9HBY8 1-367): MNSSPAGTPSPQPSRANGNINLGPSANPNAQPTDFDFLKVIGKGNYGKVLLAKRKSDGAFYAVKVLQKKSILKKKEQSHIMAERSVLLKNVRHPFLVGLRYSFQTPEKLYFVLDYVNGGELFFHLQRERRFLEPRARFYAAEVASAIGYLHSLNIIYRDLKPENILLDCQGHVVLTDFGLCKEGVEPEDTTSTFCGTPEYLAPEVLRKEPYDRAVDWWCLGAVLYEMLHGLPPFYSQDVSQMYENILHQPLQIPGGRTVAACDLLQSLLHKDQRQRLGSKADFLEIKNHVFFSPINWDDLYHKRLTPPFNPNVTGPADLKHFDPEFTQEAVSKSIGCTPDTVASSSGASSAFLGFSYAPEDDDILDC
Particulars: SGK2, 1 μM; read-out: % control. In short, it runs like this: as §1

Another test concerns the target T4, GCN2(Kin.Dom.2, S808G) (Homo sapiens, UniProt Q9P2K8, S808G).
T4 construct: GCN2(Kin.Dom.2, S808G)
T4 sequence (Q9P2K8 590-1001 S808G limits assumed): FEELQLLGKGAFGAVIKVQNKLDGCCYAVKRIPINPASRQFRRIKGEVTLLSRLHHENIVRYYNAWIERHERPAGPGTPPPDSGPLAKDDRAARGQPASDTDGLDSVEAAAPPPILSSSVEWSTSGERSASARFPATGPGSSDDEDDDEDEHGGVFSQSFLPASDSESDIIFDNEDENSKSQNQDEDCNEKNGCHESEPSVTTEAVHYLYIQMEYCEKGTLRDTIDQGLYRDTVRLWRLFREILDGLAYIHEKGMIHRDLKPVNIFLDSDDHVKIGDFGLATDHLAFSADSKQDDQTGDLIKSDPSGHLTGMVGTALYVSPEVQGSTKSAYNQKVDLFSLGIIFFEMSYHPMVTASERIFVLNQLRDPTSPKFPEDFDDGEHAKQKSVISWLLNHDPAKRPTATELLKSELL
Particulars: read-out: % control. In short, it runs like this:
as §1

The target of a further test is PRP4 (Homo sapiens, UniProt Q13523). Particulars: PRP4, 1 μM; read-out: % control. In short, it runs like this: as §1
Another test addresses T5, MYLK4 (Homo sapiens, UniProt Q86YV6).
T5 sequence (Q86YV6 1-388): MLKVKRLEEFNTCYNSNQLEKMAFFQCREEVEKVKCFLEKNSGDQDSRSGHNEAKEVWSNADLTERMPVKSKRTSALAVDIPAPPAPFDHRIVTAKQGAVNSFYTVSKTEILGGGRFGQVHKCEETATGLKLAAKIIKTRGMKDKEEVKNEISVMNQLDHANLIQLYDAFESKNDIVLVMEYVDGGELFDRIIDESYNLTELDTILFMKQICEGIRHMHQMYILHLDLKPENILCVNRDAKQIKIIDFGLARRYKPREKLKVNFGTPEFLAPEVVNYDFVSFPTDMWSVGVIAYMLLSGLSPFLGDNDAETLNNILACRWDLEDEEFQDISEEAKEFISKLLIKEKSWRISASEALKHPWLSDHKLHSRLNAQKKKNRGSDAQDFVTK
Particulars: MYLK4, 1 μM; read-out: % control. The procedure, abridged:
as §1

Another test deals with MST3 (Homo sapiens, UniProt Q9Y6E0). The settings on record: MST3, 1 μM; read-out: % control. The procedure, abridged:
as §1

The next test has as its target PAK4 (Homo sapiens, UniProt O96013). The settings on record: PAK4, 1 μM; read-out: % control. The procedure, abridged:
as §1

Another test deals with IGF1R (Homo sapiens, UniProt P08069). Particulars: read-out: % control. The procedure, abridged:
as §1

Another test deals with MLK2 (Homo sapiens, UniProt Q02779). The settings on record: MLK2, 1 μM; read-out: % control. The procedure, abridged:
as §1

The target of another test is CDK7 (Homo sapiens, UniProt P50613). Particulars: CDK7, 1 μM; read-out: % control. The procedure, abridged:
as §1

Sequence of MLK2 (Q02779 whole entry): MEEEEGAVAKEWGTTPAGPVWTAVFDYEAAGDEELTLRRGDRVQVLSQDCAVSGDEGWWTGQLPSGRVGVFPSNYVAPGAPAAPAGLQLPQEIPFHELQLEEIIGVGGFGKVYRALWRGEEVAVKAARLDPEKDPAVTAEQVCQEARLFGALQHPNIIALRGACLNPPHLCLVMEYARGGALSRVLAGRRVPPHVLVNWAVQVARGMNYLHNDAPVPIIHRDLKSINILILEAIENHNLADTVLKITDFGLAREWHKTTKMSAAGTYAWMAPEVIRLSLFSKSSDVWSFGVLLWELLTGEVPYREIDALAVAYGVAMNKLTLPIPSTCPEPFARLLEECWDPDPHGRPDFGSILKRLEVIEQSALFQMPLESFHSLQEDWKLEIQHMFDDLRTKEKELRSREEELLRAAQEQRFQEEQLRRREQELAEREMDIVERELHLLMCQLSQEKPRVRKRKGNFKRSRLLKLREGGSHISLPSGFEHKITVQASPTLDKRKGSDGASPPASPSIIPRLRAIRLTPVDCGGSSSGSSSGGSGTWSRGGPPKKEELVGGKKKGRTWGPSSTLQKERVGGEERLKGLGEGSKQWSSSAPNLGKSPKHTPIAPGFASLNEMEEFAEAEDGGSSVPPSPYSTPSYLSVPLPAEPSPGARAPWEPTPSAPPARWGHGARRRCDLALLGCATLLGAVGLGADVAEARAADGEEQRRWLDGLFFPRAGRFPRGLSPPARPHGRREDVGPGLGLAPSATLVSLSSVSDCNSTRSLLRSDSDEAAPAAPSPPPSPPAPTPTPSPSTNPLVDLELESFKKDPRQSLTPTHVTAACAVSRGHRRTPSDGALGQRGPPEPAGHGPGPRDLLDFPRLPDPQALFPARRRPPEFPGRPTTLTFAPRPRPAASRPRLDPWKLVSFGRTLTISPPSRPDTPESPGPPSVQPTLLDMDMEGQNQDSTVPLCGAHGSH
T2 sequence (O60674 849-1124 limits assumed): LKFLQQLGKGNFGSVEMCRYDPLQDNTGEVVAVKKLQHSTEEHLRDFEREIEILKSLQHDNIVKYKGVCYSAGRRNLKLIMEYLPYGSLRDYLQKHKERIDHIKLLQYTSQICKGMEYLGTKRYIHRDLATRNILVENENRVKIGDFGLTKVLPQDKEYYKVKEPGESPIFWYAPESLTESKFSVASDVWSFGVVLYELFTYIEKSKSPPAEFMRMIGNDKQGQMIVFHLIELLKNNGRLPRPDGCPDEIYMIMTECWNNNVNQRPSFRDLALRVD
Sequence of LYN (P07948 whole entry): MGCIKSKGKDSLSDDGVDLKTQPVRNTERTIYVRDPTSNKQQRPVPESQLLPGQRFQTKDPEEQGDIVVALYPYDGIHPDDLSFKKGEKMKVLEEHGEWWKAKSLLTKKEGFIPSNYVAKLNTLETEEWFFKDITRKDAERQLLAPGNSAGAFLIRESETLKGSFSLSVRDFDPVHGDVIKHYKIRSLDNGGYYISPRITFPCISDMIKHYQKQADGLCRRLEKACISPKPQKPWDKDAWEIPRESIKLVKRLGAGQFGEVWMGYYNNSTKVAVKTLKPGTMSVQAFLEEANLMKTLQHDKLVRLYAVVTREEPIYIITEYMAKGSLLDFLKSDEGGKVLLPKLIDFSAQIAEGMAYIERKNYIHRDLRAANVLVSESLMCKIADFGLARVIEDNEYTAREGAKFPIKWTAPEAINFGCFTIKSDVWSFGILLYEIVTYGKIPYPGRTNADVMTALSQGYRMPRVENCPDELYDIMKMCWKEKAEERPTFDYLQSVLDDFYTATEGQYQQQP
Sequence of MST3 (Q9Y6E0 whole entry): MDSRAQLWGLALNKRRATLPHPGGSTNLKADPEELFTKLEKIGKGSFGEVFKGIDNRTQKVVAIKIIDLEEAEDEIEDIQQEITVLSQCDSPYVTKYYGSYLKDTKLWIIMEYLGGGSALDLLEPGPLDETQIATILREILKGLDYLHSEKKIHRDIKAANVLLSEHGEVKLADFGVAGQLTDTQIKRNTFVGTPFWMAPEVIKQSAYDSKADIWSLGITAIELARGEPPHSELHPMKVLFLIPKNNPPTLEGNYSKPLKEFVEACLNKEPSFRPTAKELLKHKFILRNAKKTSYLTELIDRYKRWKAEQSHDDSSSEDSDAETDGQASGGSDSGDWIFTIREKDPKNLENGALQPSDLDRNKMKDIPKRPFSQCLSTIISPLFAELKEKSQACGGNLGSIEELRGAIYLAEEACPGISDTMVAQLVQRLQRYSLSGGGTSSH
Sequence of PAK4 (O96013 whole entry): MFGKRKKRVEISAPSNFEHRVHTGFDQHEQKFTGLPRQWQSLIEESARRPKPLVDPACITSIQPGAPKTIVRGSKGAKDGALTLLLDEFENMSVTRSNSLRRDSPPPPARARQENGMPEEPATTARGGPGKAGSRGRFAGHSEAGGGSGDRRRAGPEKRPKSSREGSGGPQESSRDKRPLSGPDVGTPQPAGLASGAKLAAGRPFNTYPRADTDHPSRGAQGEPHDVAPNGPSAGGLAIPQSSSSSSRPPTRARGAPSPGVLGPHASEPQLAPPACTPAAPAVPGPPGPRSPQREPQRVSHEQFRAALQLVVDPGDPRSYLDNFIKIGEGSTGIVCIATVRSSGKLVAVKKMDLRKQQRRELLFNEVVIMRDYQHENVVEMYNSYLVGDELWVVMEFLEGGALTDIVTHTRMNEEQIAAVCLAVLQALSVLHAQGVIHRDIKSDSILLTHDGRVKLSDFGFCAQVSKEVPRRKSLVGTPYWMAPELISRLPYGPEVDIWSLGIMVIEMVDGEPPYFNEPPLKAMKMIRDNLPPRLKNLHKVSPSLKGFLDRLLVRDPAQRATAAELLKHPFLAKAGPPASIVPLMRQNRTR
Sequence of IGF1R (P08069 31-1367): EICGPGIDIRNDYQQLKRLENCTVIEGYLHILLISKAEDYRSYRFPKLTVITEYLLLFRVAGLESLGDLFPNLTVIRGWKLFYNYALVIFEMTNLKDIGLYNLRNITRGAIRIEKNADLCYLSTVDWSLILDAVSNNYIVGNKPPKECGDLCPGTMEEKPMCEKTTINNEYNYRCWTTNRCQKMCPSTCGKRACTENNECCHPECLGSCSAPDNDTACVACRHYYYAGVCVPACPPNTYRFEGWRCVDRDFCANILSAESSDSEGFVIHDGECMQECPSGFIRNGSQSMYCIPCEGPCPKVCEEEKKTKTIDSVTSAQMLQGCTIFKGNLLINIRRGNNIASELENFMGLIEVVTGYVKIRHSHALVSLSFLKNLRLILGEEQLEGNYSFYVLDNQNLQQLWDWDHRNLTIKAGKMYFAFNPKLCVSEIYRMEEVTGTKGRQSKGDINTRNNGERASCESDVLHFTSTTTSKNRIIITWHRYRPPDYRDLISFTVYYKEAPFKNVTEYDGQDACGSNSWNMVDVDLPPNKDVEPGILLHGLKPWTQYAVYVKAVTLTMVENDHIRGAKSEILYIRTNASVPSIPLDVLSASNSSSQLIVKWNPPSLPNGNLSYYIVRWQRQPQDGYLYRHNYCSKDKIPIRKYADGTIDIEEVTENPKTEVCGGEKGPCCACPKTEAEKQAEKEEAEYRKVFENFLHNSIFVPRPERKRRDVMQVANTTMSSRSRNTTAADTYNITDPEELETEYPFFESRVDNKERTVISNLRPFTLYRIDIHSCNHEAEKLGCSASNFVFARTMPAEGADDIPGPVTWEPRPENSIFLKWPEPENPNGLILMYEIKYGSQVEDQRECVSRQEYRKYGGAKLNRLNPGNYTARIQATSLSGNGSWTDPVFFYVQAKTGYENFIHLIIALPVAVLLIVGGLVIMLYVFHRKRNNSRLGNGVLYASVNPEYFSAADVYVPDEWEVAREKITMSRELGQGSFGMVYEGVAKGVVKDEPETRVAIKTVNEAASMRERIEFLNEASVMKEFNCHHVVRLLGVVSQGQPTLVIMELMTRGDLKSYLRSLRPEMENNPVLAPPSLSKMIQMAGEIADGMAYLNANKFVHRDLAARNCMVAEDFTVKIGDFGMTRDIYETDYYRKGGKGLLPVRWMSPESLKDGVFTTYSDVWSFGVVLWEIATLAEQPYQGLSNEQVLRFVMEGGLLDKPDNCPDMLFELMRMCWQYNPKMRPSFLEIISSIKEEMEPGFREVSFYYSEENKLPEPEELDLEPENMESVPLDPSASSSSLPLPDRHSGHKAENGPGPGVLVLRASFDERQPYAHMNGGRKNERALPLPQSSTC
Sequence of CDK7 (P50613 whole entry): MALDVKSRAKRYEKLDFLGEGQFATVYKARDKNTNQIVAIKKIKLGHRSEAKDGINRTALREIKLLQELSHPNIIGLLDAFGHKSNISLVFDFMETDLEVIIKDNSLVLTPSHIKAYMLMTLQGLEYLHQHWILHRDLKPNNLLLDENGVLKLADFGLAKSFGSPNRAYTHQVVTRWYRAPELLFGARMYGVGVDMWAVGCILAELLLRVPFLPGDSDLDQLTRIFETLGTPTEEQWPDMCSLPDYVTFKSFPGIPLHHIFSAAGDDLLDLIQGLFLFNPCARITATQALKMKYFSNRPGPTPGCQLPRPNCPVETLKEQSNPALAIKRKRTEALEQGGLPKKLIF

As for `CNc1c(-c2ccc(C(=O)N3CCC(N4CCOCC4)CC3)cc2)cnc2[nH]cc(Cl)c12` [Compound 96, (4-(3-chloro-4-(methylamino)-1H-pyrrolo[2,3-b]pyridin-5-yl)phenyl)(4-morpholinopiperidin-1-yl)methanone], the remaining binding at 1 µM at CAMK4 was determined as 100%; in [1], 29%; at LYN it was 100%; on SGK2, 30%; on GCN2(Kin.Dom.2, S808G) it was 54%; at PRP4 it was 47%. For the same compound, the remaining binding at 1 µM turned out to be 100% at MYLK4; 74% on MST3; 31% at PAK4; 100% on IGF1R; 39% on MLK2; 90% on CDK7.
As to `O=C(c1ccc(-c2cnc3[nH]cc(Cl)c3c2NC2CCCC2)cc1)N1CCC(N2CCOCC2)CC1` [Compound 101, (4-(3-chloro-4-(cyclopentylamino)-1H-pyrrolo[2,3-b]pyridin-5-yl)phenyl)(4-morpholinopiperidin-1-yl)methanone], the remaining binding at 1 µM at CAMK4 was 87%; in test [1], 100%; on LYN, 100%; at SGK2 it was 65%; at GCN2(Kin.Dom.2, S808G), 100%; on PRP4, 38%. Further, the remaining binding at 1 µM worked out at 95% at MYLK4; 86% at MST3; 100% on PAK4; 86% at IGF1R; 69% on MLK2; 93% at CDK7.
With `CNc1c(-c2cnn([C@H]3CCN(C(C)=O)C[C@@H]3F)c2)cnc2[nH]cc(Cl)c12` [Compound 77, 1-((3S,4S)-4-(4-(3-chloro-4-(methylamino)-1H-pyrrolo[2,3-b]pyridin-5-yl)-1H-pyrazol-1-yl)-3-fluoropiperidin-1-yl)ethan-1-one], the remaining binding at 1 µM at CAMK4 worked out at 100%; in test [1], 7.9%; on LYN, 99%; at SGK2, 43%; on GCN2(Kin.Dom.2, S808G), 34%; on PRP4 it was 14%. Besides, the remaining binding at 1 µM at MYLK4 turned out to be 90%; on MST3, 72%; on PAK4 it was 65%; on IGF1R it was 91%; on MLK2, 62%; at CDK7, 94%.

(Values after US12275731B2, “Azaindole inhibitors of wild-type and mutant forms of LRRK2” (DANA-FARBER CANCER INSTITUTE, INC., priority 2018, dated 2025).)
